Eight molecules from US10696707B2, “Polyene macrolide derivative” (Shionogi & Co., Ltd., priority 2014, dated 2020) can be followed below.

What all share (assay type): cell-based
One assay deals with A. fumigatus ATCC204305. Kind of assay: Antifungal activity test, MIC by broth microdilution (CLSI M38-A2). To be noted: A. fumigatus ATCC204305, lowest concentration giving 100% inhibition, 35° C., 24-48 hours. The protocol: (§1) The Minimum Inhibitory Concentration (MIC) values of the present compound against yeast and filamentous fungi were determined by broth microdilution assay according to the Clinical Laboratory Standards Institute (CLSI) guidelines outlined in documents M27-A3 and M38-A2. The medium used in the assay consisted of RPMI1640 (with glutamine, without bicarbonate) with 2% glucose and 0.165 mol/L morpholinepropanesulfonic acid (MOPS) with pH adjusted to 7.0 using 1 mol/L sodium hydroxide. The present compound was dissolved in dimethyl sulfoxide (DMSO). A series of two-fold dilutions were prepared in DMSO, and then 2 μL of the diluted compound was added to each well in 96-well sterile plates. Each inoculum was prepared by diluting a suspension of Candida spp. or a conidia suspension of Aspergillus spp. suspended in sterile saline solution, and then 200 μL was added to each well to a predetermined concentration using RPMI/MOPS (final concentration for each solution: approximately 1×10^3 cells/mL and approximately 1×10^4 CFU/mL). Plates of Candida spp. and Aspergillus spp. were incubated at 35° C. for 24-48 hours. The MIC was defined as the lowest concentration giving 100% inhibition compared to the growth control.

A further assay relates to A. flavus ATCC204304. The description is as above. To be noted: A. flavus ATCC204304, lowest concentration giving 100% inhibition, 35° C., 24-48 hours. The method, then: as §1
For the next assay, the system named is C. albicans ATCC90028. Kind of assay: Antifungal activity test, MIC by broth microdilution (CLSI M27-A3). The settings on record: C. albicans ATCC90028, lowest concentration giving 100% inhibition, 35° C., 24-48 hours. The method, then: as §1

SMILES strings stand for the structures. Values after ≈ are worked out from the molar mass of the structure shown. Where two headings read alike, the source gives them in different places.

Turning to `C[C@@H]1[C@H](O)[C@@H](C)/C=C/C=C/C=C/C=C/C=C/C=C/C=C/[C@H](O[C@@H]2O[C@H](C)[C@@H](O)[C@H](NC(=N)N)[C@@H]2O)C[C@@H]2O[C@](O)(C[C@@H](O)C[C@@H](O)[C@H](O)CC[C@@H](O)C[C@@H](O)CC(=O)O[C@H]1C)C[C@H](O)[C@H]2NC(=O)NNC(N)=O` [I-330], the MIC in the assay on A. fumigatus ATCC204305 amounted to 1 µg/mL (≈ 0.963 µM); with A. flavus ATCC204304, 1 µg/mL (≈ 0.963 µM); against C. albicans ATCC90028 it was 0.25 µg/mL (≈ 0.241 µM).
Take `CONC(=O)N[C@H]1[C@@H]2C[C@@H](O[C@@H]3O[C@H](C)[C@@H](O)[C@H](NC(=N)N)[C@@H]3O)/C=C/C=C/C=C/C=C/C=C/C=C/C=C/[C@H](C)[C@@H](O)[C@@H](C)[C@H](C)OC(=O)C[C@H](O)C[C@H](O)CC[C@@H](O)[C@H](O)C[C@H](O)C[C@](O)(C[C@@H]1O)O2` [I-331]: the MIC against A. fumigatus ATCC204305 worked out at 1 µg/mL (≈ 0.99 µM); in the assay on A. flavus ATCC204304 it was 1 µg/mL (≈ 0.99 µM); in the assay with C. albicans ATCC90028, 0.25 µg/mL (≈ 0.247 µM).
As to `C[C@@H]1[C@H](O)[C@@H](C)/C=C/C=C/C=C/C=C/C=C/C=C/C=C/[C@H](O[C@@H]2O[C@H](C)[C@@H](O)[C@H](NC(=N)N)[C@@H]2O)C[C@@H]2O[C@](O)(C[C@@H](O)C[C@@H](O)[C@H](O)CC[C@@H](O)C[C@@H](O)CC(=O)O[C@H]1C)C[C@H](O)[C@H]2NC(=O)NCCC(N)=O` [I-343], the MIC was 1 µg/mL (≈ 0.951 µM) against A. fumigatus ATCC204305, 0.5 µg/mL (≈ 0.476 µM) in the assay with A. flavus ATCC204304 and 0.25 µg/mL (≈ 0.238 µM) in the assay with C. albicans ATCC90028.
Consider `C[C@@H]1[C@H](O)[C@@H](C)/C=C/C=C/C=C/C=C/C=C/C=C/C=C/[C@H](O[C@@H]2O[C@H](C)[C@@H](O)[C@H](NC(=O)CN(C)C)[C@@H]2O)C[C@@H]2O[C@](O)(C[C@@H](O)C[C@@H](O)[C@H](O)CC[C@@H](O)C[C@@H](O)CC(=O)O[C@H]1C)C[C@H](O)[C@H]2NC(=O)NCCC(N)=O` [I-344], for which the MIC was 1 µg/mL (≈ 0.914 µM) in the assay with A. fumigatus ATCC204305, 0.5 µg/mL (≈ 0.457 µM) in the assay on A. flavus ATCC204304 and 0.5 µg/mL (≈ 0.457 µM) in the assay on C. albicans ATCC90028.
Consider `C[C@@H]1[C@H](O)[C@@H](C)/C=C/C=C/C=C/C=C/C=C/C=C/C=C/[C@H](O[C@@H]2O[C@H](C)[C@@H](O)[C@H](NC(=N)N)[C@@H]2O)C[C@@H]2O[C@](O)(C[C@@H](O)C[C@@H](O)[C@H](O)CC[C@@H](O)C[C@@H](O)CC(=O)O[C@H]1C)C[C@H](O)[C@H]2NC(=O)NCC(N)=O` [I-346], for which the values for the MIC against A. fumigatus ATCC204305, in the assay on A. flavus ATCC204304 and against C. albicans ATCC90028 were 1 µg/mL (≈ 0.964 µM), 0.5 µg/mL (≈ 0.482 µM) and 0.5 µg/mL (≈ 0.482 µM), respectively.
Turning to `C[C@@H]1[C@H](O)[C@@H](C)/C=C/C=C/C=C/C=C/C=C/C=C/C=C/[C@H](O[C@@H]2O[C@H](C)[C@@H](O)[C@H](NC(=N)N)[C@@H]2O)C[C@@H]2O[C@](O)(C[C@@H](O)C[C@@H](O)[C@H](O)CC[C@@H](O)C[C@@H](O)CC(=O)O[C@H]1C)C[C@H](O)[C@H]2NC(=O)NNC(=O)[C@H](O)CO` [I-367], the MIC is 1 µg/mL (≈ 0.923 µM) in the assay with A. fumigatus ATCC204305 (Aspergillus fumigatus, read-out: MIC); 0.5 µg/mL (≈ 0.462 µM) in the assay on A. flavus ATCC204304 (Aspergillus flavus, read-out: MIC); 0.25 µg/mL (≈ 0.231 µM) in the assay on C. albicans ATCC90028 (Candida albicans, read-out: MIC).
With `C[C@@H]1[C@H](O)[C@@H](C)/C=C/C=C/C=C/C=C/C=C/C=C/C=C/[C@H](O[C@@H]2O[C@H](C)[C@@H](O)[C@H](NC(=N)NO)[C@@H]2O)C[C@@H]2O[C@](O)(C[C@@H](O)C[C@@H](O)[C@H](O)CC[C@@H](O)C[C@@H](O)CC(=O)O[C@H]1C)C[C@H](O)[C@H]2NC(=O)NNC(=O)[C@H](O)CO` [I-380], the MIC turned out to be 1 µg/mL (≈ 0.91 µM) against A. fumigatus ATCC204305, 0.5 µg/mL (≈ 0.455 µM) in the assay on A. flavus ATCC204304 and 0.5 µg/mL (≈ 0.455 µM) against C. albicans ATCC90028.
In the case of `CNC(=O)N[C@H]1[C@@H]2C[C@@H](O[C@@H]3O[C@H](C)[C@@H](O)[C@H](N(CCCN)CCCN)[C@@H]3O)/C=C/C=C/C=C/C=C/C=C/C=C/C=C/[C@H](C)[C@@H](O)[C@@H](C)[C@H](C)OC(=O)C[C@H](O)C[C@H](O)CC[C@@H](O)[C@H](O)C[C@H](O)C[C@](O)(C[C@@H]1O)O2` [I-383], the MIC against A. fumigatus ATCC204305 is 1 µg/mL (≈ 0.938 µM); in the assay on A. flavus ATCC204304 it was 1 µg/mL (≈ 0.938 µM); in the assay on C. albicans ATCC90028, 0.25 µg/mL (≈ 0.234 µM).
